Assay results taken from US11878970B2, “Allosteric chromenone inhibitors of phosphoinositide 3-kinase (PI3K) for the treatment of disease” (Petra Pharma Corporation, priority 2021, dated 2024).

Columns and labels:
[1] = biological target: T1, PI3K-α (PIK3CA) wild-type (WT), p110α/p85α complex (Homo sapiens, UniProt P42336); experiment: PI3K-alpha kinase (PIK3CA) biochemical activity, ADP-Glo, wild-type; settings: Soy PI lipid substrate
T1 construct: Recombinant, catalytically active human full length PIK3KA Wild-type and H1047R mutant; 6×His (N); purchased EMD Millipore Sigma 14-602M
Method in brief: (§1)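 ADP formation measured by ADP-Glo luminescence after reaction at 27 °C to about 10% ATP turnover, using 20 uM ATP, 50 uM PIP2diC8 or soy PI lipid, HEPES pH 7.4 with MgCl2. Enzyme (1-5 nM WT or H1047R p110α/p85α) and compound preincubated 1 h first; 10-point 1:3 curves fitted four-parameter for IC50.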

[2] = biological target: T2, PI3K-α (PIK3CA) H1047R mutant, p110α/p85α complex (Homo sapiens, UniProt P42336, H1047R); experiment: PI3K-alpha kinase (PIK3CA) biochemical activity, ADP-Glo, H1047R mutant; settings: Soy PI lipid substrate
T2 construct: Recombinant, catalytically active human full length PIK3KA Wild-type and H1047R mutant; 6×His (N); purchased EMD Millipore Sigma 14-792M
T2 sequence (P42336 whole entry H1047R): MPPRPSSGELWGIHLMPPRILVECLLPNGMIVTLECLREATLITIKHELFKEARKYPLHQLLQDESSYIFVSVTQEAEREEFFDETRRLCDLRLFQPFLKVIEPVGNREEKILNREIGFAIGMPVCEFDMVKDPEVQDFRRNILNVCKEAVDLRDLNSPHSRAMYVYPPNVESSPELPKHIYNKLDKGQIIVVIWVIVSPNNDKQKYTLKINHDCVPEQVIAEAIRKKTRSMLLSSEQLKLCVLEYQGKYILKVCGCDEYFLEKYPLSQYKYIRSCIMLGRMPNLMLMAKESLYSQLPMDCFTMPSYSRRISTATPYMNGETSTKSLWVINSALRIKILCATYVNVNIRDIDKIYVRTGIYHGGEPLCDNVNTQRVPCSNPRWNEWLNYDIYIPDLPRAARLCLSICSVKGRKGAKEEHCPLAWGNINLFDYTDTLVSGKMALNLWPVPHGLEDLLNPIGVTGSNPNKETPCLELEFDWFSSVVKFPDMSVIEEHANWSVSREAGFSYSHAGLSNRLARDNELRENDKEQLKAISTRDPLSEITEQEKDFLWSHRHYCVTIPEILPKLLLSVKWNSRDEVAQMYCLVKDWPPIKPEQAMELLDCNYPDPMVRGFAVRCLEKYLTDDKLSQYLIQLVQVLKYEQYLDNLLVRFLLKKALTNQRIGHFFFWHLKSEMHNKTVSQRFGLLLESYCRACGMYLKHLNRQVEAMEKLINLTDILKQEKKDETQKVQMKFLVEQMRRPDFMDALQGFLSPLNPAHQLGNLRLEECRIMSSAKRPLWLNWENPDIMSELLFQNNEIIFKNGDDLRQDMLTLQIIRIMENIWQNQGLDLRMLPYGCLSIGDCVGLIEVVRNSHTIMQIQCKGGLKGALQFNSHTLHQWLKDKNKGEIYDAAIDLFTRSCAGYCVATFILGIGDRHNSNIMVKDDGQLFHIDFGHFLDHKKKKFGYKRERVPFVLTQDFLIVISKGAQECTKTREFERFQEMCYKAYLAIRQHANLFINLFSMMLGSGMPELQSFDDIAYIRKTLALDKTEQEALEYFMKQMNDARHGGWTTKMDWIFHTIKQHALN
T2 sequence (P27986 whole entry partner): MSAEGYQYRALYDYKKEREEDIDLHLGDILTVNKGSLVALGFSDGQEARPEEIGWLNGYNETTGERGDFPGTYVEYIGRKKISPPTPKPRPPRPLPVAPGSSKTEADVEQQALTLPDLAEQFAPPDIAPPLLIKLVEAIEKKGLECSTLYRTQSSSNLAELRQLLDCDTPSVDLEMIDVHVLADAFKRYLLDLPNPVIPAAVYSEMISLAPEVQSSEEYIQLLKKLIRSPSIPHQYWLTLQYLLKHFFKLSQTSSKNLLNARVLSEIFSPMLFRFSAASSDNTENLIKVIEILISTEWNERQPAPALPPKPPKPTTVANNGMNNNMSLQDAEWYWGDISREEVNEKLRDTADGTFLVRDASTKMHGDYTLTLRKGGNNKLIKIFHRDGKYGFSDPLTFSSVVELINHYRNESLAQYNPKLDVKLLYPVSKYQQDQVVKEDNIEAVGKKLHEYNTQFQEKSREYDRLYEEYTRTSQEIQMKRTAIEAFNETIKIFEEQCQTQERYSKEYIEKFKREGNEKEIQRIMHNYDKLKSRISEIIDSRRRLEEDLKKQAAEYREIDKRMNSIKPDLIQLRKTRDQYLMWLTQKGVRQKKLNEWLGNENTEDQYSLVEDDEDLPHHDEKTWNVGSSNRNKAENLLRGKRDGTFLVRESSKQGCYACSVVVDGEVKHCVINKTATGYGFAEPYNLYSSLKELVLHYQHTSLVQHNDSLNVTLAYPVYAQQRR
Method in brief: as §1

[3] = biological target: PI3K-α (PIK3CA) in MDA-MB-453 cells (Homo sapiens, UniProt P42336); experiment: PI3K-alpha kinase (PIK3CA) in vitro cell based assay, MDA-MB-453 cells, SureFire Ultra AlphaLisa; settings: read-out: PI3K-α (PIK3CA) in vitro cell based assay IC50
Sequence of PI3K-α (PIK3CA) in MDA-MB-453 cells (P27986 2-724): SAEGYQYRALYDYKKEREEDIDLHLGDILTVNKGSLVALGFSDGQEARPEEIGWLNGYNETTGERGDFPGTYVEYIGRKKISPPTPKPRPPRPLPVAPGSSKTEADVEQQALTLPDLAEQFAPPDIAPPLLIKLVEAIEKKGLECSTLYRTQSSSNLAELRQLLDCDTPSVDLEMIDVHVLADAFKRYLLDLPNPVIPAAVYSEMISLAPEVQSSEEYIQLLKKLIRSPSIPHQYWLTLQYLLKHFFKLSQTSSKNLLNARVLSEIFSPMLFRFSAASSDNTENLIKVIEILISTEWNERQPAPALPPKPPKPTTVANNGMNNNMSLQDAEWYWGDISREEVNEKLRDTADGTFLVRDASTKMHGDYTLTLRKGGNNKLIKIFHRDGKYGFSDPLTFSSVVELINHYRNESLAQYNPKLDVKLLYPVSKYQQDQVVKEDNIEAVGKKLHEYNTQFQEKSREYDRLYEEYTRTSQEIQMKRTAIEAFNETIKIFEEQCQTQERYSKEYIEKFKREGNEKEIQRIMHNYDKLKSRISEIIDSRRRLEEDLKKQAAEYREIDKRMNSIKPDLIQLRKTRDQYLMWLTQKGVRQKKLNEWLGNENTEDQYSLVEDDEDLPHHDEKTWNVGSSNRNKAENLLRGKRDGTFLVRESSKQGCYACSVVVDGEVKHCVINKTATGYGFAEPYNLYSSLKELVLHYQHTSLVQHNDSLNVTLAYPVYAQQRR
Sequence of PI3K-α (PIK3CA) in MDA-MB-453 cells (P42336 whole entry): as the sequence (P42336 whole entry H1047R) above, with R1047H counted along it
Method in brief: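 Cells treated 3 h in serum-free MEM with 1 μg/mL insulin, 10-point 1:3 series in 0.3% DMSO, then lysed for SureFire Ultra AlphaLisa read-out. Inhibition normalized to DMSO (max) and 1 μM GDC-0032 (min); duplicate averages fitted by 4-parameter logistic for relative IC50.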

IC50 [1]	IC50 [2]	IC50 [3]	SMILES
1000 to 5000 nM	< 500 nM	< 50 nM	Cc1cc(C(C)Nc2ccccc2C(=O)O)c2oc(-c3ccc4ccn(C)c4c3)cc(=O)c2c1 (single isomer, unassigned) [Example 158, 2-[1-[6-Methyl-2-(1-methylindol-6-yl)-4-oxo-chromen-8-yl]ethylamino]benzoic acid]
1000 to 5000 nM	< 500 nM	50 to 100 nM	Cc1cc(C(C)Nc2ccccc2C(=O)O)c2oc(-c3cc4cn(C)nc4cn3)cc(=O)c2c1 (single isomer, unassigned) [Example 160, 2-[1-[6-Methyl-2-(2-methylpyrazolo[3,4-c]pyridin-5-yl)-4-oxo-chromen-8-yl]ethylamino]benzoic acid]
5000 to 10000 nM	< 500 nM	50 to 100 nM	Cc1cc(C(C)Nc2ccccc2C(=O)O)c2oc(-c3cnc4c(c3)OCCO4)cc(=O)c2c1 (single isomer, unassigned) [Example 163, 2-[1-[2-(2,3-Dihydro-[1,4]dioxino[2,3-b]pyridin-7-yl)-6-methyl-4-oxo-chromen-8-yl]ethylamino]benzoic acid]
< 500 nM	< 500 nM	< 50 nM	Cc1cc(C(C)Nc2ccc(Cl)nc2C(=O)O)c2oc(-c3nn(C)c4ccccc34)c(C)c(=O)c2c1 (single isomer, unassigned) [Example 170, 6-Chloro-3-[1-[3,6-dimethyl-2-(1-methylindazol-3-yl)-4-oxo-chromen-8-yl]ethylamino]pyridine-2-carboxylic acid]
1000 to 5000 nM	1000 to 5000 nM	> 500 nM	Cc1cc(C(C)Nc2cccc(F)c2C(=O)O)c2oc(-c3ccc4nn(C)cc4c3)cc(=O)c2c1 (single isomer, unassigned) [Example 171, 2-Fluoro-6-[1-[6-methyl-2-(2-methylindazol-5-yl)-4-oxo-chromen-8-yl]ethylamino]benzoic acid]
500 to 1000 nM	< 500 nM	50 to 100 nM	Cc1cc(C(C)Nc2ccc(Cl)nc2C(=O)O)c2oc(-c3ccc4nc(C)cn4c3)c(C)c(=O)c2c1 (single isomer, unassigned) [Example 178, 6-Chloro-3-[1-[3,6-dimethyl-2-(2-methylimidazo[1,2-a]pyridin-6-yl)-4-oxo-chromen-8-yl]ethylamino]pyridine-2-carboxylic acid]
500 to 1000 nM	< 500 nM	50 to 100 nM	Cc1cc(C(C)Nc2cccc(F)c2C(=O)O)c2oc(-c3nn(C)c4ccccc34)cc(=O)c2c1 (single isomer, unassigned) [Example 189, 2-Fluoro-6-[1-[6-methyl-2-(1-methylindazol-3-yl)-4-oxo-chromen-8-yl]ethylamino]benzoic acid]
500 to 1000 nM	< 500 nM	100 to 500 nM	Cc1cc(-c2cc(=O)c3cc(C(F)(F)F)cc(C(C)Nc4ccc(Cl)nc4C(=O)O)c3o2)cc2cn(C)nc12 (single isomer, unassigned) [Example 191, 6-Chloro-3-[1-[2-(2,7-dimethylindazol-5-yl)-4-oxo-6-(trifluoromethyl)chromen-8-yl]ethylamino]pyridine-2-carboxylic acid]

Continued, compound first:

SMILES	IC50 [1]	IC50 [2]	IC50 [3]
CC(Nc1ccccc1C(=O)O)c1cc(F)cc2c(=O)cc(-c3cc4ccccc4[nH]3)oc12 (single isomer, unassigned) [Example 128, 2-[1-[6-Fluoro-2-(1H-indol-2-yl)-4-oxo-chromen-8-yl]ethylamino]benzoic acid]	500 to 1000 nM	< 500 nM	< 50 nM
Cc1cc(C(C)Nc2ccccc2C(=O)O)c2oc(-c3ccc4[nH]ncc4c3)c(C)c(=O)c2c1 (single isomer, unassigned) [Example 132, 2-[1-[2-(1H-Indazol-5-yl)-3,6-dimethyl-4-oxo-chromen-8-yl]ethylamino]benzoic acid]	500 to 1000 nM	< 500 nM	< 50 nM
Cc1cc(C(C)Nc2ccccc2C(=O)O)c2oc(-c3ccc4nc(C)sc4n3)cc(=O)c2c1 (single isomer, unassigned) [Example 139, 2-[1-[6-Methyl-2-(2-methylthiazolo[5,4-b]pyridin-5-yl)-4-oxo-chromen-8-yl]ethylamino]benzoic acid]	1000 to 5000 nM	< 500 nM	< 50 nM
Cc1cc(C(C)Nc2ccccc2C(=O)O)c2oc(-c3cc(C)c4nn(C)cc4c3)cc(=O)c2c1 (single isomer, unassigned) [Example 144, 2-[1-[2-(2,7-Dimethylindazol-5-yl)-6-methyl-4-oxo-chromen-8-yl]ethylamino]benzoic acid]	1000 to 5000 nM	< 500 nM	< 50 nM
Cc1cc(C(C)Nc2ccccc2C(=O)O)c2oc(-c3cnc4ccccn34)cc(=O)c2c1 (single isomer, unassigned) [Example 145, 2-[1-(2-Imidazo[1,2-a]pyridin-3-yl-6-methyl-4-oxo-chromen-8-yl)ethylamino]benzoic acid]	1000 to 5000 nM	< 500 nM	100 to 500 nM
Cc1cc(C(C)Nc2ccccc2C(=O)O)c2oc(-c3ccc4cnn(C)c4c3)c(C)c(=O)c2c1 (single isomer, unassigned) [Example 149, 2-[1-[3,6-Dimethyl-2-(1-methylindazol-6-yl)-4-oxo-chromen-8-yl]ethylamino]benzoic acid]	< 500 nM	< 500 nM	< 50 nM
Cc1cc(C(C)Nc2ccccc2C(=O)O)c2oc(-c3ccc4c(cnn4C)c3)c(C)c(=O)c2c1 (single isomer, unassigned) [Example 150, 2-[1-[3,6-Dimethyl-2-(1-methylindazol-5-yl)-4-oxo-chromen-8-yl]ethylamino]benzoic acid]	< 500 nM	< 500 nM	< 50 nM
Cc1cc(C(C)Nc2ccccc2C(=O)O)c2oc(-c3cc4ccncc4o3)c(C)c(=O)c2c1 (single isomer, unassigned) [Example 151, 2-[1-(2-Furo[2,3-c]pyridin-2-yl-3,6-dimethyl-4-oxo-chromen-8-yl)ethylamino]benzoic acid]	500 to 1000 nM	< 500 nM	< 50 nM
Cc1cc(C(C)Nc2ccccc2C(=O)O)c2oc(-c3cc4cnccc4o3)c(C)c(=O)c2c1 (single isomer, unassigned) [Example 153, 2-[1-(2-Furo[3,2-c]pyridin-2-yl-3,6-dimethyl-4-oxo-chromen-8-yl)ethylamino]benzoic acid]	< 500 nM	< 500 nM	< 50 nM
CC(Nc1ccccc1C(=O)O)c1cc(F)cc2c(=O)cc(-c3ccc4nn(C)cc4c3)oc12 (single isomer, unassigned) [Example 156, 2-[1-[6-Fluoro-2-(2-methylindazol-5-yl)-4-oxo-chromen-8-yl]ethylamino]benzoic acid]	1000 to 5000 nM	1000 to 5000 nM	> 500 nM
CC(Nc1ccc(Cl)nc1C(=O)O)c1cc(C(F)(F)F)cc2c(=O)cc(-c3ccc4c(cnn4C)c3)oc12 (single isomer, unassigned) [Example 168, 6-Chloro-3-[1-[2-(1-methylindazol-5-yl)-4-oxo-6-(trifluoromethyl)chromen-8-yl]ethylamino]pyridine-2-carboxylic acid]	< 500 nM	< 500 nM	50 to 100 nM
Cc1cc(C(C)Nc2ccccc2C(=O)O)c2oc(-c3cc4cccnc4cn3)cc(=O)c2c1 (single isomer, unassigned) [Example 187, 2-[1-[6-Methyl-2-(1,7-naphthyridin-6-yl)-4-oxo-chromen-8-yl]ethylamino]benzoic acid]	1000 to 5000 nM	< 500 nM	< 50 nM
Cc1cc(C(C)Nc2ccc(Cl)nc2C(=O)O)c2oc(-c3cc(C)c4nn(C)cc4c3)cc(=O)c2c1 (single isomer, unassigned) [Example 188, 6-Chloro-3-[1-[2-(2,7-dimethylindazol-5-yl)-6-methyl-4-oxo-chromen-8-yl]ethylamino]pyridine-2-carboxylic acid]	500 to 1000 nM	< 500 nM	< 50 nM
Cc1cc(C(C)Nc2cccc(F)c2C(=O)O)c2oc(-c3cc(C)c4nn(C)cc4c3)cc(=O)c2c1 (single isomer, unassigned) [Example 190, 2-[1-[2-(2,7-Dimethylindazol-5-yl)-6-methyl-4-oxo-chromen-8-yl]ethylamino]-6-fluoro-benzoic acid]	500 to 1000 nM	< 500 nM	50 to 100 nM
Cc1cc(-c2cc(=O)c3cc(C(F)(F)F)cc(C(C)Nc4ccc(Cl)nc4C(=O)O)c3o2)cc2cn(C)nc12 (single isomer, unassigned) [Example 192, 6-Chloro-3-[1-[2-(2,7-dimethylindazol-5-yl)-4-oxo-6-(trifluoromethyl)chromen-8-yl]ethylamino]pyridine-2-carboxylic acid]	500 to 1000 nM	500 to 1000 nM	> 500 nM
CC(Nc1ccc(Cl)nc1C(=O)O)c1cc(C(F)(F)F)cc2c(=O)cc(-c3cc(Cl)c4nn(C)cc4c3)oc12 (single isomer, unassigned) [Example 193, 6-Chloro-3-[1-[2-(7-chloro-2-methyl-indazol-5-yl)-4-oxo-6-(trifluoromethyl)chromen-8-yl]ethylamino]pyridine-2-carboxylic acid]	500 to 1000 nM	< 500 nM	< 50 nM
